Measured values: patent publication US10537541B2, “Treatment of focal segmental glomerular sclerosis (FSGS) using therapeutically effective oral doses of 10-nitro-9(E)-octadec-9-enoic acid” (Complexa, Inc., priority 2015, dated 2020)
“Also recorded” adds a separate entry of the source.

Key:
[1] = tested on: deoxycorticosterone acetate (DOCA)/salt-induced model of FSGS; assay: DOCA salt study: RT-PCR analysis of kidney gene expression; assay type: in vivo, mice (129/sv strain); details: DOCA/salt mice kidney; for Nephrin gene expression / Podocin gene expression: normalized to 18S, fold changes to control group, mean ± SEM; for gene expression of MCP-1, osteopontin, collagen III, fibronectin and PAI-1 (mRNA, qRT-PCR): 4 weeks
Description: (§1) Induction of model: Male mice (129/sv strain) were purchased from Taconic Labs. The animals were uninephrectomized (Unx) at 6 weeks of age by the vendor and shipped one week after surgery. At 2 weeks post Unx, a DOCA or placebo pellet (21-day release pellets, 50 mg/pellet, Innovative Research of America, Sarasota, Fla.) was implanted s.c. All mice were then placed on a semisynthetic diet which contained a moderate fat content and a low phytoestrogen/anti-oxidant level, which approximates a normal human diet (4). A second DOCA or placebo pellet was implanted three weeks later.
(§2) Treatment: Mice were treated with placebo, 10-nitro-9(E)-octadec-9-enoic acid at a dose of 2.5 and 12.5 mg/kg, or enalapril (standard of care) for 4 weeks by oral gavage starting 2 weeks after the first DOCA implantation. One percent NaCl in tap water was given to each group except the sham control group. Body weight was measured weekly, and doses were readjusted based on the current body weight. Urine and blood samples were collected prior to treatment and at week 2 and 4 of treatment. Mice were terminated at week 4. Data is presented as the mean+SEM for the number of animals listed in each group.
RT-PCR Analysis of Gene Expression: A slice of kidney from each mouse was placed in Trizol solution (Invitrogen) immediately after harvesting and stored at −80° C. until analysis. Tissues were homogenized using a bead mill in 0.5 ml of Trizol solution and total RNA was extracted with chloroform (Sigma) and purified using standard RNeasy mini kit (Qiagen), with on column DNase 1 (Qiagen) digestion to avoid non-specific fluorescence emission derived from the recognition of contaminating genomic DNA by the probe, according to manufacturer's recommendation. RNA samples were eluted in 30 μl of nuclease-free water and quantified using a Nanodrop. cDNA was generated from 2 μg of RNA by using Clontech Sprint PowerScript reagents according to manufacturer's protocol. Fluorogenic probes specific for genes assayed in the report were purchased from Applied Biosystems. PCR amplification and analysis of PCR reaction were performed and monitored using an ABI Prism 7900HT Sequence Detection System (TaqMan, Perkin-Elmer Applied Biosystem). Data analysis was carried out by using the Sequence Detection Systems v2.3 program (Applied Biosystems). For each cDNA sample the Ct value of each target sequence was normalized to reference gene (Ribosomal RNA-18S), and shown as fold changes to control group. Statistical analyses for gene expression data was performed using a two-tailed Student's t-test.

[2] = tested on: deoxycorticosterone acetate (DOCA)/salt-induced model of FSGS; assay: DOCA salt study: urinary isoprostane and tetranor-PGDM by LC-MS; assay type: in vivo, mice (129/sv strain); details: DOCA/salt mice
Description: as §1, §2
Isoprostanes are a unique series of prostaglandin-like compounds formed in vivo via a non-enzymatic mechanism involving the free radical-initiated peroxidation of arachidonic acid. It has been shown that 8-iso-PGF2a (15-F2t-isoprostane) is the isoprostane that correlates best with increasing oxidative stress. Therefore, to assess the effect of treatment on oxidative stress, this isoform was measured using LC-MS. Also measured was tetranor-PGDM, a urinary metabolite of prostaglandin D2. […] On the other hand, elevated tetranor-PGDM was lowered with treatment of 10-nitro-9(E)-octadec-9-enoic acid and enalapril at the end time point (FIG. 18).

[3] = tested on: deoxycorticosterone acetate (DOCA)/salt-induced model of FSGS; assay: DOCA/salt-induced mouse model of FSGS: renoprotection, body weight, blood pressure, organ/body weight ratios; assay type: in vivo, mice (129/sv strain); details: DOCA/salt mice
Description: 10-nitro-9(E)-octadec-9-enoic acid, given orally after onset of renal injury, was evaluated for efficacy in a model for Focal Segmental Glomerular Sclerosis (FSGS) in humans. […] Mice were uni-nephrectomized and, after two weeks, implanted subcutaneously with DOCA (50 mg, 21-day release) or placebo sustained release pellets, with pellet replacement 3 weeks later. All groups, except the sham control group, also received 1% NaCl in tap water. 10-nitro-9(E)-octadec-9-enoic acid (daily oral gavage, 2.5 or 12.5 mg/kg) or enalapril (20 mg/kg/day in drinking water) treatments began 2 weeks after the first DOCA implantation and continued for 4 weeks. Enalapril was included for comparison because it is used as standard of care for FSGS and this is a positive control for the model.
as §1, §2

[4] = tested on: rat model of renal ischemia/reperfusion; assay: Rat model of renal ischemia/reperfusion (acute kidney injury); assay type: in vivo; details: rats
Description: Prevention of ischemic reperfusion injury: Studies were performed to test the effectiveness and the dose/exposure-response relationship of 10-nitro-9(E)-octadec-9-enoic acid in reducing acute kidney injury in a rat model of renal ischemia/reperfusion when administered prior to the insult. A well-established and reproducible rat model of contrast-induced nephropathy was not available. Because ischemic/reperfusion injury is a facet of contrast-induced nephropathy, it was considered a reasonable alternative. In this model, the renal arteries of the rat were clamped for 35 min, followed by reperfusion. Serum creatinine was measured daily for 72 hours. The animals were then sacrificed for tissue and terminal plasma. 10-nitro-9(E)-octadec-9-enoic acid was administered over 15 min intravenously at various doses at one hour prior to the injury. […]
10-nitro-9(E)-octadec-9-enoic acid (2.5, 12.5, and 25 mg/kg) was administered 1 hr prior to the ischemic event. Plasma samples were taken at 0, 24, 48, and 72 hr following the ischemic event, and serum creatinine levels were measured in batches using mass spectrometry to achieve precision in the results.

## CCCCCCCC/C(=C\CCCCCCCC(=O)O)[N+](=O)[O-] [CXA-10, 10-nitro-9(E)-octadec-9-enoic acid]
[1]; 2.5 mpk
  Nephrin gene expression: 1.264 ± 0.0789
  Podocin gene expression: 1.077 ± 0.123
[1]; 12.5 mpk
  Nephrin gene expression: 1.313 ± 0.15
  Podocin gene expression: 1.117 ± 0.084
[1]; high dose 12.5 mg/kg p.o. QD
  gene expression of MCP-1, osteopontin, collagen III, fibronectin and PAI-1 (mRNA, qRT-PCR): neither the high dose 10-nitro-9(E)-octadec-9-enoic acid nor enalapril had an effect
[1]; low dose 2.5 mg/kg p.o. QD
  gene expression of MCP-1, osteopontin, collagen III, fibronectin and PAI-1 (mRNA, qRT-PCR): inhibited these genes
[2]; end time point
  urinary tetranor-PGDM: lowered
[2]; low dose 2.5 mg/kg, not statistically significant
  urinary 8-iso-PGF2a, compared with the high dose or enalapril: trended to have a greater reduction
[3]; 2.5 mg/kg/day oral gavage
  renal protector (renoprotective effect): highly effective as a renal protector
[3]; 10-nitro-9(E)-octadec-9-enoic acid 2.5 or 12.5 mg/kg p.o. or enalapril 20 mg/kg/d, 4 weeks
  body weight gains: unaffected
[3]; low dose 2.5 mg/kg p.o. QD, 4 weeks
  kidney/body weight and heart/body ratios: reduced
[4]; 12.5 mg/kg intravenously 1 hr prior to I/R injury
  renal structural injury (periodic acid-Schiff staining, blinded scoring): alleviation of injury; also recorded: preserved normal renal structure
[4]; 12.5 mg/kg intravenously 1 hr prior to ischemic event, 24 hr, p<0.01 at 24 hr only
  serum creatinine following ischemia: statistically significant decrease; also recorded: significantly lowered
